Columns and labels:
[1] = target: Delta-type opioid receptor (Homo sapiens, UniProt P41143); test: Displacement of [3H]DADLE from Opioid receptor delta 1
[2] = target: Mu-type opioid receptor (Homo sapiens, UniProt P35372); test: Displacement of [3H]DAMGO from Opioid receptor mu 1
[3] = target: Kappa-type opioid receptor (Homo sapiens, UniProt P41145); test: Displacement of [3H]U-69593 from Opioid receptor kappa 1
[4] = target: Opioid receptors; mu & delta (Homo sapiens) (UniProt P41143+P35372); test: Selectivity ratio for mu and delta opioid receptor binding; format: protein assay
[5] = target: Opioid receptors; delta & kappa (Homo sapiens) (UniProt P41145+P41143); test: Selectivity ratio for kappa and delta opioid receptor binding; format: protein assay
Chain of Opioid receptors; delta & kappa (Homo sapiens) (P41143 whole entry, looked up): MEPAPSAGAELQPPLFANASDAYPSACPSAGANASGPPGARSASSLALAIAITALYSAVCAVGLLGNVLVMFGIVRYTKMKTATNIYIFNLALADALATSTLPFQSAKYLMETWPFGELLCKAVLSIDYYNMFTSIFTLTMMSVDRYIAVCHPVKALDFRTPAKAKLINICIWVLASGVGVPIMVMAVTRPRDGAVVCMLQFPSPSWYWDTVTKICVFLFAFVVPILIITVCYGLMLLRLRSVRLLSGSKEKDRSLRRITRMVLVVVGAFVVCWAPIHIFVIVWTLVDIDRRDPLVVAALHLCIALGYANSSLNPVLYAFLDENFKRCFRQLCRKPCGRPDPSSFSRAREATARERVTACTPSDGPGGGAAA
Chain of Opioid receptors; delta & kappa (Homo sapiens) (P41145 whole entry, looked up): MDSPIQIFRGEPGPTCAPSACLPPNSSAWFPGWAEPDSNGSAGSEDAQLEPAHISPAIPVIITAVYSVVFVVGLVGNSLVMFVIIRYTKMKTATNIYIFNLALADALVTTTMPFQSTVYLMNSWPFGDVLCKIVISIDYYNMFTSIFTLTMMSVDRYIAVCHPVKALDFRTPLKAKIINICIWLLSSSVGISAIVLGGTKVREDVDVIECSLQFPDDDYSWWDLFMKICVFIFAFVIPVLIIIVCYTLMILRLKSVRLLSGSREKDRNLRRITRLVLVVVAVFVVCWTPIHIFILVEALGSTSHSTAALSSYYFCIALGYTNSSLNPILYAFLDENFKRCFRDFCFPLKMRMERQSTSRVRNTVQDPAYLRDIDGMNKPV

Chain of Kappa-type opioid receptor (P41145 whole entry): as the sequence (P41145 whole entry, looked up) above
Chain of Opioid receptors; mu & delta (Homo sapiens) (P35372 whole entry, looked up): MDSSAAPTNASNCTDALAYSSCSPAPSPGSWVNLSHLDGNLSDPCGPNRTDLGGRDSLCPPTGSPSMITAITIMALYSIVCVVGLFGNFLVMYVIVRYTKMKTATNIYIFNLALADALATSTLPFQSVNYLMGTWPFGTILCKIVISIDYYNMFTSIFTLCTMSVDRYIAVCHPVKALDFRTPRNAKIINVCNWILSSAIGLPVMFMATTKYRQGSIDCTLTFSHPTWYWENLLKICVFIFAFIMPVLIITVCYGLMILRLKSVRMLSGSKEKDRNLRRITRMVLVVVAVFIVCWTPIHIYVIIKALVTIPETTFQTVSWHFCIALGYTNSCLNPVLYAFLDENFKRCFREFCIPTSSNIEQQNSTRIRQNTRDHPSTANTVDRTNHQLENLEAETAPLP
Chain of Opioid receptors; mu & delta (Homo sapiens) (P41143 whole entry, looked up): as the sequence (P41143 whole entry, looked up) above
Chain of Mu-type opioid receptor (P35372 whole entry): as the sequence (P35372 whole entry, looked up) above
Chain of Delta-type opioid receptor (P41143 whole entry): as the sequence (P41143 whole entry, looked up) above

C=C(C)CN1CCC23c4c5ccc(OC)c4O[C@H]2c2[nH]ncc2C[C@@]3(O)C1C5 (stereo partly drawn)
Ki [1]: 2400 nM | Ki [2]: > 6000 nM | Ki [3]: 3100 nM

C=C(C)CN1CCC23c4c5ccc(O)c4O[C@H]2C(=O)/C(=C/c2ccccc2)C[C@@]3(O)C1C5 (stereo partly drawn)
Selectivity ratio [4]: 21 | Ki [1]: 210 nM | Ki [2]: 4500 nM | Ki [3]: 4500 nM | Selectivity ratio [5]: 21

C=C(C)CN1CCC23c4c5ccc(O)c4O[C@H]2c2[nH]ncc2C[C@@]3(O)C1C5 (stereo partly drawn)
Ki [1]: 40 nM | Ki [2]: 140 nM | Ki [3]: 38 nM

C=C(C)CN1CCC23c4c5ccc(OC)c4O[C@H]2C(=O)C2(Cc4ccccc4C2)C[C@@]3(O)C1C5 (stereo partly drawn)
Ki [1]: > 7200 nM | Ki [2]: > 6000 nM | Ki [3]: > 7000 nM

C=C(C)CN1CCC23c4c5ccc(O)c4O[C@H]2c2oc4ccccc4c2C[C@@]3(O)C1C5 (stereo partly drawn)
Selectivity ratio [4]: 160 | Ki [1]: 8.2 nM | Ki [2]: 1300 nM | Ki [3]: 580 nM | Selectivity ratio [5]: 71

C=C(C)CN1CCC23c4c5ccc(O)c4O[C@H]2C(=O)C2(Cc4ccccc4C2)C[C@@]3(O)C1C5 (stereo partly drawn)
Selectivity ratio [4]: 49 | Ki [1]: 41 nM | Ki [2]: 2000 nM | Ki [3]: 1000 nM | Selectivity ratio [5]: 24

C=C(C)CN1CCC23c4c5ccc(O)c4O[C@H]2c2ncc(-c4ccc(Cl)cc4)cc2C[C@@]3(O)C1C5 (stereo partly drawn)
Selectivity ratio [4]: > 380 | Ki [1]: 16 nM | Ki [2]: > 6000 nM | Ki [3]: 300 nM | Selectivity ratio [5]: 19

C=C(C)CN1CCC23c4c5ccc(OC)c4O[C@H]2c2n[nH]cc2C[C@@]3(O)C1C5 (stereo partly drawn)
Selectivity ratio [4]: > 2 | Selectivity ratio [5]: 1

C=C(C)CN1CCC23c4c5ccc(OC)c4O[C@H]2C(=O)/C(=C/c2ccccc2)C[C@@]3(O)C1C5 (stereo partly drawn)
Selectivity ratio [4]: > 1 | Ki [1]: 3400 nM | Ki [2]: > 6000 nM | Ki [3]: > 7000 nM | Selectivity ratio [5]: > 2

C=C(C)CN1CCC23c4c5ccc(OC)c4O[C@H]2c2[nH]c4ccccc4c2C[C@@]3(O)C1C5 (stereo partly drawn)
Selectivity ratio [4]: > 12 | Ki [1]: 500 nM | Ki [2]: > 6000 nM | Ki [3]: > 14000 nM | Selectivity ratio [5]: > 28

C=C(C)CN1CCC23c4c5ccc(OC)c4O[C@H]2c2ncc(-c4ccc(Cl)cc4)cc2C[C@@]3(O)C1C5 (stereo partly drawn)
Selectivity ratio [4]: 23 | Ki [1]: 260 nM | Ki [2]: > 6000 nM | Ki [3]: 3200 nM | Selectivity ratio [5]: 12

C=C(C)CN1CCC23c4c5ccc(OC)c4O[C@H]2c2oc4ccccc4c2C[C@@]3(O)C1C5 (stereo partly drawn)
Selectivity ratio [4]: 140 | Ki [1]: 44 nM | Ki [2]: > 6000 nM | Ki [3]: > 10000 nM | Selectivity ratio [5]: 230

C=C(C)CN1CCC23c4c5ccc(O)c4O[C@H]2c2n[nH]cc2C[C@@]3(O)C1C5 (stereo partly drawn)
Selectivity ratio [4]: 4 | Selectivity ratio [5]: 1

C=C(C)CN1CCC23c4c5ccc(O)c4O[C@H]2c2[nH]c4ccccc4c2C[C@@]3(O)C1C5 (stereo partly drawn)
Selectivity ratio [4]: 1700 | Ki [1]: 4.7 nM | Ki [2]: 7900 nM | Ki [3]: 3800 nM | Selectivity ratio [5]: 810

— ChEMBL document CHEMBL1134426, “Derivatives of 17-(2-methylallyl)-substituted noroxymorphone: variation of the delta address and its effects on affinity and selectivity for the delta opioid receptor” (Bioorg Med Chem Lett, 2001)
